# Laboratory results published in patent US6730704B2, “1-(aryloxy)propionoyl-2-arylsulfonyl hydrazines, process for preparation thereof and use thereof as hypoglycemic agents” (Council of Scientific & Industrial Research, priority 2002, dated 2004).
# Key:
# normoglycemic rats = assay: Hypoglycemic activity in normal rats; assay type: in vivo; conditions: fasted normal Wistar rats; Glibenclamide 5 mg/kg per oral; reduction vs basal glucose, measured 1-6 hr, time of value not stated
# Procedure: Hypoglycemic Activity in Normal Rats:
# Wistar rats of either sex weighing 150-180 gms were fasted overnight and divided into control, standard and test groups each consisting of 6 rats. The standard drug, Glibenclamide, was administered in the dose of 5 mg/kg per oral to the rats. All test compounds were administered in the dose of 200 mg/kg per oral to the test groups. Both standard and test drugs were administered as 1% gum acacia suspension. Control group received vehicle only. Blood glucose levels were measured before drugs administration at 0 hr and at 1 hr, 2 hr, 4 hr and 6 hr after drugs administration. Percent reduction of blood glucose levels at different time intervals was calculated with reference to basal glucose levels. All the blood glucose estimations were done using GOD/POD method and were analyzed using Auto Blood Analyzer (Technicon RA-1000, Bayer Diagnostics, Ireland). The standard drug (Glibenclamide) has shown a percent inhibition of glucose 65.1 and all the test compounds (1 to 9 examples) have shown percent inhibition in range of 48.5 to 63.2 (FIG. 1)
# [1] = system: Streptozotocin induced diabetic rats; assay: Hypoglycemic activity in Streptozotocin induced diabetic rats; assay type: in vivo; conditions: Streptozotocin (50 mg/kg i.v.) diabetic Wistar rats; Glibenclamide 1 mg/kg daily for 14 days; vs reading before drug administration
# Procedure: Hypoglycemic Activity in Streptozotocin Induced Diabetic Rats:
# Wistar rats of either sex weighting 150-180 gms were used in this study and were divided into control, standard and test groups each consisting of 6 rats. Basal glucose levels were taken for all rats. Diabetes was induced by administering Streptozotocin in the dose of 50 mg/kg intravenously to the rats in all the groups. After a period of 48 hrs glucose levels were again measured and rats that have shown glucose levels of 400±20 mg/dl were selected. Glibenclamide (1 mg/kg) and the test compounds (50 mg/kg) were administered as 1% gum acacia suspension daily for a period of 14 days. At the end of 14 days after the last dose, blood glucose levels were again measured and the percent reduction in blood glucose was measured for all the rats in all the groups with respect to the initial reading before drug administration.
smiles,measurement,setting,value
COc1ccc(Cl)cc1C(=O)NCCc1ccc(S(=O)(=O)NC(=O)NC2CCCCC2)cc1 [Glibenclamide],percent inhibition of glucose,normoglycemic rats,65.1%
same,hypoglycemic activity expressed as percent inhibition of blood glucose levels,[1],68.2%
